Consider two compounds from PMC11520371 (Journal of Pharmaceutical Health Care and Sciences, 2024).

Where only a bound is given, the exact number is not on record here.

Data set [1] is described as follows: Plasma concentrations measured by UPLC-MSMS in the case patient. It counts as in vivo, human. How it is done: The patient had pancreatic cancer and was admitted to Hirosaki University hospital to undergo a pancreatoduodenectomy. Written informed consent was obtained from this patient for the measurement of each biomarker and polymorphisms of pharmacokinetics-related genes. […] This regimen involved taking CAM 400 mg twice per day after breakfast and supper, RFP 450 mg once per day after breakfast, and ethambutol 750 mg once per day.

For data set [2] the following is noted: cited from earlier work.
Data set [3] relates to P-glycoprotein (P-gp; gene code ABCB1). The conditions noted are these: cited from earlier work.
In a further data set the test system is albumin. Conditions: cited from earlier work.
The test system of data set [4] is organic anion transporting polypeptide 1B1 (OATP1B1; SLCO1B1). Conditions: cited from earlier work.

On to `CN1CCc2nc(C(=O)N[C@@H]3C[C@@H](C(=O)N(C)C)CC[C@@H]3NC(=O)C(=O)Nc3ccc(Cl)cn3)sc2C1` [edoxaban], for which the concentration at 26 h in data set [1] (male, human, in vivo, 30 mg/day, POD131, 26 h after last edoxaban tablet (C0h), edoxaban 30 mg/day, outpatient follow-up) was under 5 ng/mL. Also, the concentration at 2 h in data set [1] (male, human, in vivo, 30 mg/day, POD233, 2 h after last edoxaban tablet (C2h), edoxaban 30 mg/day, outpatient follow-up) worked out at 413 ng/mL. Further, the concentration at 24 h in data set [1] (male, human, in vivo, 60 mg once per day, POD9, 24 h after last edoxaban tablet (trough, C0h), edoxaban 60 mg once per day with RFP and CAM, onset of AKI) was determined as 131 ng/mL. In data set [1] (male, human, in vivo, 60 mg once per day, POD10, 8 h after last edoxaban tablet (C8h), edoxaban 60 mg once per day with RFP and CAM, AKI), the concentration at 8 h turned out to be 796 ng/mL. In data set [1] (male, human, in vivo, 60 mg once per day, POD11, 24 h after last edoxaban tablet (trough, C0h), AKI), this compound returned a concentration at 24 h of 116 ng/mL. Also, the concentration at 96 h in data set [1] (male, human, in vivo, 60 mg once per day, POD14, 96 h after last edoxaban tablet) was under 5 ng/mL. Moreover, in data set [2], the “absorbed drug excreted in its unchanged form through the kidneys” value was “approximately 50%” and the bioavailability entry is recorded as “approximately 62%”. Also, the “substrate of P-glycoprotein” value in data set [3] is “substrate”. Further, in the data set with albumin, the albumin binding rate is on record as 55%. The “substrate of OATP1B1” value in data set [4] is “not an OATP1B1 substrate”.
With `CCCCC(=O)N(Cc1ccc(-c2ccccc2-c2nnn[nH]2)cc1)[C@H](C(=O)O)C(C)C` [valsartan], the “Plasma concentration of valsartan” value is 2400 ng/mL in data set [1] (POD6), 5700 ng/mL in data set [1] (POD9), 10400 ng/mL in data set [1] (POD11) and 1000 ng/mL in data set [1] (POD131). Besides, the concentration at 10 postoperative day in data set [1] (male, human, plasma, POD10, read-out: Plasma concentration of valsartan) amounted to 9400 ng/mL. Moreover, in data set [1] (male, human, plasma, POD14, read-out: Plasma concentration of valsartan), the concentration at 14 postoperative day stood at 1400 ng/mL. Further, in data set [2], the “unchanged valsartan excreted in the urine” value is listed as 13%.
